For experiment [1], the target named is Sodium-dependent dopamine transporter (Homo sapiens) (UniProt Q01959). Briefly: Displacement of [3H]WIN-35428 from human recombinant DAT expressed in CHO cells at 1 uM. Type of experiment: cell-based.
The target in experiment [2] is Sodium-dependent serotonin transporter (Homo sapiens, UniProt P31645). Format: cell-based, JAR.
Description: Inhibition of serotonin uptake at human SERT expressed in JAR cells
The target in experiment [3] is Sodium-dependent noradrenaline transporter (Homo sapiens, UniProt P23975).
Description: Inhibition of norepinephrine uptake at human NET expressed in MDCK cells

This is an account of results in ChEMBL document CHEMBL1144192, “Synthesis and activity of 1-(3-amino-1-phenylpropyl)indolin-2-ones: a new class of selective norepinephrine reuptake inhibitors” (Bioorg Med Chem Lett, 2008).

Bounds are passed on as bounds.

Chain of Sodium-dependent serotonin transporter (P31645 whole entry): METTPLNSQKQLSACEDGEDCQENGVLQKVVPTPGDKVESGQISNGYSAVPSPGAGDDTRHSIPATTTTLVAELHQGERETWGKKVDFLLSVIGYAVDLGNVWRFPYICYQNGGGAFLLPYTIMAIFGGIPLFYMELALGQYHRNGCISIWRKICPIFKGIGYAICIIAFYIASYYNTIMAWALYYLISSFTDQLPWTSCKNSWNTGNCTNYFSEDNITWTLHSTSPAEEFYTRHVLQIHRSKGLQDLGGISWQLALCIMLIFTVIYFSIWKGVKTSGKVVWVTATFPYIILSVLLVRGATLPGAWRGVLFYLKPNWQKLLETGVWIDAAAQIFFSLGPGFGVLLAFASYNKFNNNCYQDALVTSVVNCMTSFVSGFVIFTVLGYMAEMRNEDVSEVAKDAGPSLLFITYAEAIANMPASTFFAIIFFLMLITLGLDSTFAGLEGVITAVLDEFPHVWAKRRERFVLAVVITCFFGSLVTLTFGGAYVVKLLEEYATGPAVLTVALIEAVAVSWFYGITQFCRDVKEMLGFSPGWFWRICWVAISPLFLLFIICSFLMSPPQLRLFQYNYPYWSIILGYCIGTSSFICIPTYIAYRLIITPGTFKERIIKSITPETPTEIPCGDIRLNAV
Chain of Sodium-dependent dopamine transporter (Homo sapiens) (Q01959 whole entry): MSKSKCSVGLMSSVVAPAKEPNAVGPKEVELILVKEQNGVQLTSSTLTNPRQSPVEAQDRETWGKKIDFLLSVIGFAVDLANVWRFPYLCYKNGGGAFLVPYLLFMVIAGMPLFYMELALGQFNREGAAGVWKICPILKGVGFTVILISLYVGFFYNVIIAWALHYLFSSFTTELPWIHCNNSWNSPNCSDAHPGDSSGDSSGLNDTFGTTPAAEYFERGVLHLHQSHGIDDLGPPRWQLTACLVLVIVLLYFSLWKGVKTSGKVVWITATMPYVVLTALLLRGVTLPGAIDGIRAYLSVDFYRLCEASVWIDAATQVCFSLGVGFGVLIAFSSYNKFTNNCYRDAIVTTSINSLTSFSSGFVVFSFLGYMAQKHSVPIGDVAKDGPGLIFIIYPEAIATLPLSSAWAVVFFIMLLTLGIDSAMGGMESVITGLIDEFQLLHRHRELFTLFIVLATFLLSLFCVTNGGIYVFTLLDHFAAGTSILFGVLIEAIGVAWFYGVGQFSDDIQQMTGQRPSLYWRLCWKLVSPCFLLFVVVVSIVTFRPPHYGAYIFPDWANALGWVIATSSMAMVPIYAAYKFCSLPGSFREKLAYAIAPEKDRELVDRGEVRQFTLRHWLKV
Chain of Sodium-dependent noradrenaline transporter (P23975 whole entry): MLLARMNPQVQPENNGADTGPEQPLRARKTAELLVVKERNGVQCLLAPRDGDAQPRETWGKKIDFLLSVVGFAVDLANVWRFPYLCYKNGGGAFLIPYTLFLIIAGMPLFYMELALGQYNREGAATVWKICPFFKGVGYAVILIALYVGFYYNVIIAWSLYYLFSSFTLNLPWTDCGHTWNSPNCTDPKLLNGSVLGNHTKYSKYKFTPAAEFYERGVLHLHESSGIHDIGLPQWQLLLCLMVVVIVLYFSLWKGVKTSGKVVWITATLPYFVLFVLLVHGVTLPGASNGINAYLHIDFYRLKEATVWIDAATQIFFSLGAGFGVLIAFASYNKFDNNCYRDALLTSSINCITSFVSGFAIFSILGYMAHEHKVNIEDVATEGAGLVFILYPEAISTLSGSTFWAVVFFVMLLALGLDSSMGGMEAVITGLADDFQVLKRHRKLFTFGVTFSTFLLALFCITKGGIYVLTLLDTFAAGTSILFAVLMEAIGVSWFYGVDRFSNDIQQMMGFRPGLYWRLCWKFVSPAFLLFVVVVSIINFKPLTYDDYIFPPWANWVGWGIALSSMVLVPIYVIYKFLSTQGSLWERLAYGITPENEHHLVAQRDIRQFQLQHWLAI

Usually IC50 stands for the concentration that gives 50% inhibition. A low value points to inhibition by little substance. For the compound `CNCC[C@H](c1cccc(F)c1)N1C(=O)C(C)(C)c2cccc(F)c21`, the Activity in experiment [1] amounted to 7%. Further, the half-inhibitory concentration (IC50) is 2550 nM in experiment [2] and 14 nM in experiment [3].

With `CNCC[C@H](c1cc(F)cc(Cl)c1)N1C(=O)C(C)(C)c2cccc(F)c21`, the Activity in experiment [1] was 0%. In addition, the concentration for half-maximal inhibition (IC50) in experiment [2] is more than 3000 nM; in experiment [3], 19 nM.

As for `CNCC[C@@H](c1ccccc1)N1C(=O)C2(CCCCC2)c2ccccc21`, in experiment [1], the Activity was determined as 0%. Further, the half-inhibitory concentration (IC50) in experiment [2] is 1750 nM; in experiment [3], more than 3000 nM.

As for `CNCC[C@H](c1ccccc1)N1C(=O)C(C)(C)c2ccccc21`, in experiment [1], the Activity was 0%. Besides, the IC50 in experiment [2] is 1350 nM; in experiment [3], 7 nM.

For the compound `CNCC[C@@H](c1ccccc1)N1C(=O)C(C)(C)c2ccccc21`, the Activity in experiment [1] came out at 3%. Moreover, the IC50 in experiment [2] was 1950 nM; in experiment [3], more than 3000 nM.

For the compound `CNCC[C@H](c1cccc(F)c1)N1C(=O)C2(CCCCC2)c2ccccc21`, the Activity in experiment [1] worked out at 20%. The values for the IC50 in experiment [2] and in experiment [3] were more than 3000 nM and 26 nM, respectively.

As to `CNCC[C@H](c1cccc(Cl)c1)N1C(=O)C(C)(C)c2cccc(F)c21`, the Activity in experiment [1] was determined as 10%. The IC50 is 290 nM in experiment [2] and 7 nM in experiment [3].

Regarding `CNCCC(c1ccccc1)n1ccc2ccccc21` (configuration not stated), in experiment [1], the Activity is 44%. Further, the results for the IC50 in experiment [2] and in experiment [3] were 327 nM and 47 nM, respectively.

On to `CNCC[C@@H](c1cccc(F)c1)N1C(=O)C2(CCCCC2)c2ccccc21`, for which the Activity in experiment [1] turned out to be 1%. For the same compound, the concentration for half-maximal inhibition (IC50) in experiment [2] is 1150 nM; in experiment [3], more than 3000 nM.

On to `CNCC[C@H](c1ccccc1)N1C(=O)C2(CCCCC2)c2ccccc21`, for which, in experiment [1], the Activity was 26%. Further, the IC50 in experiment [2] was more than 3000 nM; in experiment [3], 53 nM.

The compound `CNCCC(Oc1ccccc1OC)c1ccccc1` (configuration not stated) [NISOXETINE] showed an IC50 in experiment [2] of 277 nM.

`CNCC[C@H](c1ccccc1)N1C(=O)C(C)(C)c2cccc(F)c21`: the Activity in experiment [1] was determined as 3%. Besides, the half-inhibitory concentration (IC50) was more than 3000 nM in experiment [2] and 175 nM in experiment [3].

Take `CNCC[C@H](c1cc(F)cc(F)c1)N1C(=O)C(C)(C)c2cccc(F)c21`: the Activity in experiment [1] came to 0%. Also, the 50% inhibitory concentration (IC50) in experiment [2] is 330 nM; in experiment [3], 6 nM.
